Measured values reported in ChEMBL document CHEMBL1201862, “PubChem BioAssay data set” (2004).
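Each compound was tested at five concentrations against cells in 96-well plates for 48 hours. At the GI50, growth is halved.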 The source made the active and inactive calls. No stated cut-off is given here; in the data, active = GI50 up to about 1.1 µM and inactive = higher.

Columns and labels:
Test in all cases: NCI anticancer screen, dose series, 48 h
MCF7 = system: MCF7
UACC-62 = system: UACC-62
NCI-H522 = system: NCI-H522
HOP-92 = system: HOP-92
MOLT-4 = system: MOLT-4
HL-60 = system: HL-60
Malme-3M = system: Malme-3M
SF-295 = system: SF-295
M14 = system: M14
A498 = system: A498
RXF 393 = system: RXF 393
CAKI-1 = system: CAKI-1
SK-OV-3 = system: SK-OV-3
HCT-116 = system: HCT-116
SR = system: SR
OVCAR-8 = system: OVCAR-8
UACC-257 = system: UACC-257
U-251 = system: U-251
NCI/ADR-RES = system: NCI/ADR-RES
HCT-15 = system: HCT-15
EKVX = system: EKVX
K562 = system: K562
BT-549 = system: BT-549
NCI-H226 = system: NCI-H226
TK-10 = system: TK-10
DU-145 = system: DU-145
HOP-62 = system: HOP-62
COLO 205 = system: COLO 205
OVCAR-3 = system: OVCAR-3
SK-MEL-5 = system: SK-MEL-5
T47D = system: T47D
MDA-N = system: MDA-N
SK-MEL-28 = system: SK-MEL-28
RPMI-8226 = system: RPMI-8226
KM12 = system: KM12
NCI-H460 = system: NCI-H460
SK-MEL-2 = system: SK-MEL-2
Hs-578T = system: Hs-578T
SW-620 = system: SW-620
A549 = system: A549
OVCAR-5 = system: OVCAR-5
SNB-75 = system: SNB-75
CCRF-CEM = system: CCRF-CEM
MDA-MB-435 = system: MDA-MB-435
SNB-19 = system: SNB-19
MDA-MB-231 = system: MDA-MB-231
LOX IMVI = system: LOX IMVI
HT-29 = system: HT-29
UO-31 = system: UO-31
NCI-H23 = system: NCI-H23
SF-539 = system: SF-539
786-0 = system: 786-0
SF-268 = system: SF-268
SN12C = system: SN12C
IGROV-1 = system: IGROV-1
ACHN = system: ACHN
OVCAR-4 = system: OVCAR-4
PC-3 = system: PC-3

## CSC(=S)N(C)C [CYSTOGON]
MCF7
  GI50: > 100 µM (inactive)
UACC-62
  GI50: > 100 µM (inactive)
NCI-H522
  GI50: > 100 µM (inactive)
HOP-92
  GI50: > 100 µM (inactive)
MOLT-4
  GI50: > 100 µM (inactive)
HL-60
  GI50: > 100 µM (inactive)
Malme-3M
  GI50: > 100 µM (inactive)
SF-295
  GI50: > 100 µM (inactive)
M14
  GI50: > 100 µM (inactive)
A498
  GI50: > 100 µM (inactive)
RXF 393
  GI50: > 100 µM (inactive)
CAKI-1
  GI50: > 100 µM (inactive)
SK-OV-3
  GI50: > 100 µM (inactive)
HCT-116
  GI50: > 100 µM (inactive)
SR
  GI50: > 100 µM (inactive)
OVCAR-8
  GI50: > 100 µM (inactive)
UACC-257
  GI50: > 100 µM (inactive)
U-251
  GI50: > 100 µM (inactive)
NCI/ADR-RES
  GI50: > 100 µM (inactive)
HCT-15
  GI50: > 100 µM
EKVX
  GI50: > 100 µM (inactive)
K562
  GI50: > 100 µM (inactive)
BT-549
  GI50: > 100 µM (inactive)
NCI-H226
  GI50: > 100 µM (inactive)
TK-10
  GI50: > 100 µM (inactive)
DU-145
  GI50: > 100 µM (inactive)
HOP-62
  GI50: > 100 µM (inactive)
COLO 205
  GI50: > 100 µM (inactive)
OVCAR-3
  GI50: > 100 µM (inactive)
SK-MEL-5
  GI50: > 100 µM (inactive)
T47D
  GI50: > 100 µM (inactive)
MDA-N
  GI50: > 100 µM (inactive)
SK-MEL-28
  GI50: > 100 µM (inactive)
RPMI-8226
  GI50: > 100 µM (inactive)
KM12
  GI50: > 100 µM (inactive)
NCI-H460
  GI50: > 100 µM (inactive)
SK-MEL-2
  GI50: > 100 µM (inactive)
Hs-578T
  GI50: > 100 µM (inactive)
SW-620
  GI50: > 100 µM (inactive)
A549
  GI50: > 100 µM (inactive)
OVCAR-5
  GI50: > 100 µM (inactive)
SNB-75
  GI50: 80 µM (inactive)
CCRF-CEM
  GI50: > 100 µM (inactive)
MDA-MB-435
  GI50: > 100 µM (inactive)
SNB-19
  GI50: > 100 µM (inactive)
MDA-MB-231
  GI50: > 100 µM (inactive)
LOX IMVI
  GI50: > 100 µM (inactive)
HT-29
  GI50: > 100 µM (inactive)
UO-31
  GI50: > 100 µM (inactive)
NCI-H23
  GI50: > 100 µM (inactive)
SF-539
  GI50: > 100 µM (inactive)
786-0
  GI50: > 100 µM (inactive)
SF-268
  GI50: > 100 µM (inactive)
SN12C
  GI50: > 100 µM (inactive)
IGROV-1
  GI50: > 100 µM (inactive)

## CC(=O)O[C@H]1CC[C@@]2(C)C(=CC[C@@H]3[C@@H]2CC[C@]2(C)C(=N/O)/C(=C/c4ccc([N+](=O)[O-])cc4)C[C@@H]32)C1
UACC-62
  GI50: 1.76 µM (inactive)
NCI-H522
  GI50: 2.08 µM (inactive)
ACHN
  GI50: 6.22 µM (inactive)
HOP-92
  GI50: 11.9 µM (inactive)
MOLT-4
  GI50: 3.58 µM (inactive)
HL-60
  GI50: 2.33 µM (inactive)
Malme-3M
  GI50: 4.61 µM (inactive)
SF-295
  GI50: 3.74 µM (inactive)
M14
  GI50: 4.09 µM (inactive)
A498
  GI50: 4.71 µM (inactive)
RXF 393
  GI50: 32.4 µM (inactive)
CAKI-1
  GI50: 1.39 µM (inactive)
OVCAR-4
  GI50: 17 µM (inactive)
SK-OV-3
  GI50: 11.9 µM (inactive)
HCT-116
  GI50: 3.97 µM (inactive)
PC-3
  GI50: 2.72 µM (inactive)
UACC-257
  GI50: 0.0304 µM (active)
NCI/ADR-RES
  GI50: 6.84 µM (inactive)
HCT-15
  GI50: 4.6 µM
K562
  GI50: 3.1 µM (inactive)
BT-549
  GI50: 2.25 µM (inactive)
NCI-H226
  GI50: 7.66 µM (inactive)
TK-10
  GI50: 8.43 µM (inactive)
DU-145
  GI50: 5.26 µM (inactive)
HOP-62
  GI50: 17.3 µM (inactive)
COLO 205
  GI50: 2.29 µM (inactive)
OVCAR-3
  GI50: 2.47 µM (inactive)
SK-MEL-5
  GI50: 1.69 µM (inactive)
T47D
  GI50: 0.338 µM (active)
MDA-N
  GI50: 3.37 µM (inactive)
SK-MEL-28
  GI50: 11 µM (inactive)
RPMI-8226
  GI50: 1.06 µM (active)
KM12
  GI50: 5.22 µM (inactive)
NCI-H460
  GI50: > 100 µM (inactive)
SK-MEL-2
  GI50: 3.53 µM (inactive)
Hs-578T
  GI50: 2.39 µM (inactive)
SW-620
  GI50: 6.24 µM (inactive)
A549
  GI50: 4.55 µM (inactive)
SNB-75
  GI50: 10 µM (inactive)
CCRF-CEM
  GI50: 3.76 µM (inactive)
MDA-MB-435
  GI50: 3.32 µM (inactive)
SNB-19
  GI50: 2.94 µM (inactive)
MDA-MB-231
  GI50: 8.89 µM (inactive)
LOX IMVI
  GI50: 6.52 µM (inactive)
HT-29
  GI50: 5.43 µM (inactive)
UO-31
  GI50: 4.44 µM (inactive)
NCI-H23
  GI50: 2.31 µM (inactive)
SF-539
  GI50: 29.3 µM (inactive)
786-0
  GI50: 4.89 µM (inactive)
SF-268
  GI50: 3.66 µM (inactive)
SN12C
  GI50: 5.5 µM (inactive)
IGROV-1
  GI50: 12.8 µM (inactive)

## CCOC(=O)c1cc(Sc2ccc(N)c(C(=O)OCC)c2)ccc1N
MCF7
  GI50: 13.2 µM (inactive)
UACC-62
  GI50: 9.42 µM (inactive)
NCI-H522
  GI50: 4.38 µM (inactive)
ACHN
  GI50: 10.4 µM (inactive)
HOP-92
  GI50: 58.2 µM (inactive)
MOLT-4
  GI50: 8.24 µM (inactive)
HL-60
  GI50: 16.7 µM (inactive)
Malme-3M
  GI50: 11.6 µM (inactive)
SF-295
  GI50: 3.3 µM (inactive)
M14
  GI50: > 100 µM (inactive)
A498
  GI50: 21.6 µM (inactive)
RXF 393
  GI50: 11.5 µM (inactive)
CAKI-1
  GI50: 7.69 µM (inactive)
OVCAR-4
  GI50: 17.8 µM (inactive)
SK-OV-3
  GI50: > 100 µM (inactive)
HCT-116
  GI50: > 100 µM (inactive)
SR
  GI50: 6.95 µM (inactive)
OVCAR-8
  GI50: 20.7 µM (inactive)
PC-3
  GI50: 11.4 µM (inactive)
UACC-257
  GI50: > 100 µM (inactive)
U-251
  GI50: 27.9 µM (inactive)
NCI/ADR-RES
  GI50: 5.25 µM (inactive)
HCT-15
  GI50: > 100 µM
EKVX
  GI50: 13.5 µM (inactive)
K562
  GI50: 7.98 µM (inactive)
BT-549
  GI50: > 100 µM (inactive)
NCI-H226
  GI50: 16.7 µM (inactive)
DU-145
  GI50: > 100 µM (inactive)
HOP-62
  GI50: 14.8 µM (inactive)
COLO 205
  GI50: 60.8 µM (inactive)
OVCAR-3
  GI50: 24.8 µM (inactive)
SK-MEL-5
  GI50: > 100 µM (inactive)
T47D
  GI50: > 100 µM (inactive)
MDA-N
  GI50: 5.43 µM (inactive)
SK-MEL-28
  GI50: > 100 µM (inactive)
RPMI-8226
  GI50: 24 µM (inactive)
KM12
  GI50: 5.62 µM (inactive)
NCI-H460
  GI50: 78.2 µM (inactive)
SK-MEL-2
  GI50: > 100 µM (inactive)
Hs-578T
  GI50: 21.5 µM (inactive)
SW-620
  GI50: > 100 µM (inactive)
A549
  GI50: 19.6 µM (inactive)
OVCAR-5
  GI50: 12.1 µM (inactive)
SNB-75
  GI50: 12.3 µM (inactive)
CCRF-CEM
  GI50: 28 µM (inactive)
SNB-19
  GI50: > 100 µM (inactive)
MDA-MB-231
  GI50: 14.4 µM (inactive)
HT-29
  GI50: 28.8 µM (inactive)
NCI-H23
  GI50: 25.3 µM (inactive)
SF-539
  GI50: 24.9 µM (inactive)
786-0
  GI50: 26.4 µM (inactive)
SF-268
  GI50: 16.1 µM (inactive)
SN12C
  GI50: 18 µM (inactive)
IGROV-1
  GI50: 18.6 µM (inactive)
